Values belong to the compound of their own block, whether it stands above or below them.
Key:
[1] = test system: RNA3WJ_1.0.0_5IB_3FAM (cis 3WJ with one unpaired nucleotide); assay: Fluorescence quenching binding assay (FAM / Iowa Black); settings: two concentration points
Procedure: (§1) This assay will be used to test binding of compounds for RNA three way junction (such as a 38 nt construct). This is a fluorescence quenching assay utilizing FAM as fluorescence tag and Iowa Black as quencher. Tags are attached at the 3′ and 5′ end, respectively. Stable formation of MW upon compound binding would lead to quenching of the FAM fluorescence due to close proximity of the Iowa Black tag. Assay readout: FAM (485-520 nm) Fluorescence Intensity.
(§2) Assay sample buffer used: 10 mM CacoK pH 7.2, 30 mM NaCl. Buffer preparation in Dnase/Rnase Free distilled water (Gibco Life Technologies).
(§3) Dilute the RNA 1:10 (final 10 μM) in Assay Buffer.
(§4) Heat up the diluted RNA up to 90° C. for 5 min (sealed Eppendorf Tube).
(§5) Cool down the RNA probe slowly to RT.
(§6) Dilute the compounds to 800 μM in DMSO (Assay: 8 μM).
(§7) Final concentrations in the sample: 1-10 μM RNA, 8 μM compound, 1% DMSO
(§8) Pipet 25 μL Sample Solution into Greiner cat #784076, black, 384
(§9) Measure the 96 plate with the LightCycler480 (Channel: 485/520 nm).
(§10) The fluorescence quenching experiment was repeated for compounds Ark0000013 and Ark0000014 to measure binding with:
A) RNA3WJ_1.0.0_5IB_3FAM (cis 3WJ with one unpaired nucleotide)
(§11) Both cmpds were tested at two concentration points in the fluorescence quenching assays to assess effect upon RNA constructs utilized in the study. […]

RNA3WJ_3.0.0_5IB_3FAM = assay: Thermal shift binding assay; settings: 1 μM RNA, 8 μM compound, 10 mM CacoK pH 7.2, 30 mM NaCl
From the text: (§12) Purpose: Test binding of compounds for RNA three way junction (for example, a construct of 38 nt). Thermal shift assay based on established fluorescence quenching assay utilizing FAM as fluorescence tag and Iowa Black as quencher. Tags were attached at the 3′ and 5′ end, respectively. Stable formation of 3WJ upon compound binding would lead to quenching of the FAM fluorescence due to close proximity of the Iowa Black tag. Thermal unfolding leads to increase of fluorescence emission. Assay readout: FAM (465-510 nm) Thermal Shift.
as §2, §3, §4, §5
(§13) Dilute the compounds to 800 μM in DMSO (Assay: 8 μM). […]
(§14) Pipet 20 μL Sample Solution into Roche, Light Cycler480 Multiwell Plate96, white, REF 04729692001.
(§15) Measure the 96 plate with the LightCycler480 (Channel: 480/510 nm; Temperature: 41-91° C.).
(§16) Analyse measurement-data with the MeltingCurveGenotyping Mode.
(§17) Settings: Acquisition mode: continuous; Ramp rate: 0.1° C./sec; Acquisition: 6° C.
(§18) Curves are fitted with raw and normalized data.
(§19) Melting curves analysis show melting temperature (Tm) of ˜51° C. Range of RNA concentrations was tested and assay window was determined (conc. range of 0.5-1 μM yields best results). The choice of buffer also affected the Tm. RNA constructs were tested under different buffer conditions (especially in presence of salt) in the thermal shift assay. […] CacoK with 30 mM salt at 1 μM RNA conc. was used to assess compound effects on 3WJ stability. […] These conditions were used for screening test compounds.

[2] = test system: RNA3WJ_0.0.0_5IB_3FAM (3WJ_0.0.0_5IB_3FAM RNA construct); assay: Thermal shift binding assay; settings: for Melt. Temp. with cmpd / Shift melt. Temp.: RNA sequence 3WJ_0.0.0_5IB_FAM; for Melt. Temp. with cmpd: melting temperature in presence of compound; for Shift melt. Temp.: with cmpd minus without cmpd
From the text: as §12, §2, §3, §4, §5, §13, §14, §15, §16, §17, §18, §19

[3] = test system: Split3WJ.1_up_5IB+Split3WJ.1_down_3FAM (trans 3WJ as 1:1 mix); assay: Fluorescence quenching binding assay (FAM / Iowa Black); settings: two concentration points
Procedure: as §1, §2, §3, §4, §5, §6, §7, §8, §9, §10
B) Split3WJ.1_up_5IB+Split3WJ.1_down_3FAM (trans 3WJ as 1:1 mix)
as §11

[4] = test system: Split3WJ.2 up_5IB+Split3WJ.2_down_3FAM (trans 3WJ as 1:1 mix); assay: as above; settings: two concentration points
Procedure: as §1, §2, §3, §4, §5, §6, §7, §8, §9, §10
C) Split3WJ.2 up_5IB+Split3WJ.2_down_3FAM (trans 3WJ as 1:1 mix)
as §11

[5] = test system: Split3WJ.2_up_5IB+Split3WJ.2_down_3FAM (trans 3WJ as 1:1 mix; Split3WJ_2); assay: Thermal shift binding assay; settings: 1 μM RNA, 8 μM compound, 10 mM CacoK pH 7.2, 30 mM NaCl
From the text: as §12, §2, §3, §4, §5, §6
(§20) Final concentrations in the sample: 1 μM RNA, 8 μM compound, 1% DMSO
as §14, §15, §16, §17, §18, §19
(§21) Compounds Ark0000013 and Ark0000014 were also tested in the thermal shift assay against three RNA 3WJ constructs, A) RNA3WJ_1.0.0_5IB_3FAM (cis 3WJ with one unpaired nucleotide); B) Split3WJ.1_up_5IB+Split3WJ.1_down_3FAM (trans 3WJ as 1:1 mix); and C) Split3WJ.2_up_5IB+Split3WJ.2_down_3FAM (trans 3WJ as 1:1 mix).

[6] = test system: Split3WJ.1_up_5IB+Split3WJ.1_down_3FAM (trans 3WJ as 1:1 mix; Split3WJ_1); assay: Thermal shift binding assay; settings: 1 μM RNA, 8 μM compound, 10 mM CacoK pH 7.2, 30 mM NaCl
From the text: as §12, §2, §3, §4, §5, §6, §20, §14, §15, §16, §17, §18, §19, §21

[7] = test system: RNA3WJ_1.0.0_5IB_3FAM (cis 3WJ with one unpaired nucleotide); assay: Thermal shift binding assay; settings: 1 μM RNA, 8 μM compound, 10 mM CacoK pH 7.2, 30 mM NaCl
From the text: as §12, §2, §3, §4, §5, §6, §20, §14, §15, §16, §17, §18, §19, §21

RNA3WJ_1.1.0_5IB_3FAM = assay: Thermal shift binding assay; settings: 1 μM RNA, 8 μM compound, 10 mM CacoK pH 7.2, 30 mM NaCl
From the text: as §12, §2, §3, §4, §5, §6, §20, §14, §15, §16, §17, §18, §19

RNA3WJ_2.1.0_5IB_3FAM = assay: Thermal shift binding assay; settings: 1 μM RNA, 8 μM compound, 10 mM CacoK pH 7.2, 30 mM NaCl
From the text: as §12, §2, §3, §4, §5, §6, §20, §14, §15, §16, §17, §18, §19

RNA3WJ_1.1.1_5IB_3FAM = assay: Thermal shift binding assay; settings: 1 μM RNA, 8 μM compound, 10 mM CacoK pH 7.2, 30 mM NaCl
From the text: as §12, §2, §3, §4, §5, §6, §20, §14, §15, §16, §17, §18, §19

RNA3WJ_2.0.0_5IB_3FAM = assay: Thermal shift binding assay; settings: 1 μM RNA, 8 μM compound, 10 mM CacoK pH 7.2, 30 mM NaCl
From the text: as §12, §2, §3, §4, §5, §6, §20, §14, §15, §16, §17, §18, §19

[8] = test system: 3WJ_0.0.0_5IB_3FAM RNA construct; assay: Fluorescence quenching binding assay (FAM / Iowa Black); settings: concentration dependent; effect at conc. >5 μM
Procedure: as §1, §2, §3, §4, §5, §6, §7, §8, §9
Calibration of the expected fluorescence signal at various RNA concentrations in either CacoK or NaPO4 buffers was performed first. Experiments in buffers containing salt show distinct fluorescence quenching behavior. […]
First, two compounds (i.e. Ark000007 & Ark000008) were tested in the fluorescence quenching assay to assess concentration dependent influence on the fluorescence signal.

[9] = 1 μM RNA, 8 μM compound, 10 mM CacoK pH 7.2, 30 mM NaCl

- fluorescence quenching effect (FAM fluorescence signal) [1]: smaller effect
- Melting temp + cmpd (RNA3WJ_3.0.0_5IB_3FAM): 63.9 °C
- Temp. Shift (RNA3WJ_3.0.0_5IB_3FAM): 1.9 °C
- Melting temp + cmpd [2, 9]: 61.5 °C
- Temp. Shift [2, 9]: 1.6 °C
- Melt. Temp. with cmpd [2]: 61.5 °C
- Shift melt. Temp. [2]: +1.6 °C
- fluorescence quenching effect (FAM fluorescence signal) [3]: smaller effect
- fluorescence quenching effect (FAM fluorescence signal) [4]: Split3WJ_2 shows larger effect
- Melting temp + cmpd [5]: 44.7 °C
- Temp. Shift [5]: ~1 °C
- Melting temp + cmpd ([5]; listed as Ark0000014): 44.0 °C
- Temp. Shift ([5]; listed as Ark0000014): −0.3 °C
- Melting temp + cmpd [6]: 38.8 °C
- Temp. Shift [6]: ~1 °C
- Melting temp + cmpd ([6]; listed as Ark0000014): 37.8 °C
- Temp. Shift ([6]; listed as Ark0000014): 0.3 °C
- Melting temp + cmpd [7]: 68.4 °C
- Temp. Shift [7]: ~3 °C
- Melting temp + cmpd ([7]; listed as Ark0000014): 68.1 °C
- Temp. Shift ([7]; listed as Ark0000014): 2.5 °C
- Melting temp + cmpd (RNA3WJ_1.1.0_5IB_3FAM): 65.1 °C
- Temp. Shift (RNA3WJ_1.1.0_5IB_3FAM): 1.8 °C
- Melting temp + cmpd (RNA3WJ_2.1.0_5IB_3FAM): 42.0 °C
- Temp. Shift (RNA3WJ_2.1.0_5IB_3FAM): 0.1 °C
- Melting temp + cmpd (RNA3WJ_1.1.1_5IB_3FAM): 64.3 °C
- Temp. Shift (RNA3WJ_1.1.1_5IB_3FAM): 2.1 °C
- Melting temp + cmpd (RNA3WJ_2.0.0_5IB_3FAM): 64.4 °C
- Temp. Shift (RNA3WJ_2.0.0_5IB_3FAM): 2.2 °C
Compound: NCCCCCCCNC(=O)c1ccc2c(c1)C1c3cc(C(=O)NCCCCCCCN)ccc3C2c2ccc(C(=O)NCCCCCCCN)cc21 [Ark000014, N^2,N^7,N^15-tris(7-aminoheptyl)-9,10-dihydro-9,10-[1,2]benzenoanthracene-2,7,15-tricarboxamide]

- effect on melting temperature (in words) ([2]; 1 μM RNA, 8 μM compound): only a very small effect
- Melt. Temp. with cmpd [2]: 61.8 °C
- Shift melt. Temp. [2]: +0.6 °C
Compound: C#CCCCC(=O)NC[C@H]1O[C@H](O[C@H]2[C@H](O)[C@@H](O[C@H]3O[C@H](CO)[C@@H](O)[C@H](N)[C@H]3O)[C@H](N)C[C@@H]2N)[C@H](O)[C@@H](O)[C@@H]1O [Ark000008]
- fluorescence quenching effect (FAM fluorescence signal) [8]: Only Ark000007 showed an increase of quenching effect

From US20220402883A1, “COMPOUNDS AND METHODS FOR MODULATING RNA FUNCTION” (Arrakis Therapeutics, Inc., priority 2016, published 2022)
